No end group written: not given here.
Experiments:
[1] = tested on: WKY rats; experiment: Ischemic hindlimb model, digital angiographies and blood flow determination; assay type: in vivo, rat; settings: 14 days
[2] = tested on: ERK1/2; experiment: ERK1/2 activation in BAEC (western blot); assay type: cell-based, bovine; settings: serum deprived BAEC, 15 minutes at 37° C.
Protocol: Effect of QK and VEGF15 on ERK1/2 activation. Serum deprived BAEC were treated with QK (a) or with VEGF 15 (b) in absence or in presence of VEGF165 (100 ng/ml) for 15 minutes at 37° C. and then dissolved in RIPA-SDS buffer. Total ERK1/2 and the phosphorylated form of ERK1/2 were visualized by specific antibodies.
Western blot. Cells were plated on six-well dishes and serum starved overnight. On the next day, cells were treated with different amount of peptide in absence or in presence of VEGF165 for 15 minutes at 37° C. and then dissolved in RIPA-SDS buffer (50 mM Tris-HCl (pH 7.5), 150 mM NaCl, 1% NP-40, 0.25% deoxycholate, 9.4 mg/50 ml sodium orthovanadate, […]). In some experiments, total KDR and Flt-1 were immunoprecipitated from an equal amount of whole-cell protein extracts using protein A/G agarose beads conjugated with antibodies raised against total KDR or Flt-1 (R&D). Proteins from whole-cell extracts or immunocomplexes were resolved by PAGE and transferred to nitrocellulose. Total extracellular signal-regulated kinase 1 and 2 (ERK1/2), serine-tyrosin phosphorylated ERK1/2, phospho-tyrosine (Cell signaling) and phospho-RB (p-RB) (Santacruz) were visualized by specific antibodies, anti-rabbit HRP-conjugated secondary antibody (Santacruz) and standard chemiluminescence (Pierce).
Activation of the proliferative intracellular pathways. We then explored whether QK is able to start the pathways of endothelial cell activation. It is well established that angiogenesis modulate by VEGF is largely ERK1/2 dependent, leading to DNA synthesis and cell proliferation (7). Accordingly, we assessed the effects of QK on this kinase. […] To verify whether ERK1/2 activation to QK results in cell proliferation, we studied cell proliferation indicators such as cell number, DNA synthesis and cyclin activation.

[3] = tested on: VEGF receptors; experiment: VEGF receptors binding assay ([125I]-VEGF competition on BAEC membranes); parameters: species or system bovine
Protocol: VEGF receptors binding and activation. a) VEGF competitive binding on BAEC. 1 μg of membrane protein was plated with QK and [^125I]-VEGF (500000 cpm, 10^−10 M). b) KDR activation. After stimulation total KDR was immunoprecipitated from a whole-cell protein extracts and phospho-tyrosine was visualized by a specific antibody, anti-rabbit HRP-conjugated secondary antibody and standard chemiluminescence. c) Flt-1 activation. After stimulation total Flt-1 was immunoprecipitated from a whole-cell protein extracts and phospho-tyrosine was visualized by specific antibody, anti-rabbit HRP-conjugated secondary antibody and standard chemiluminescence.
VEGF receptors binding assay. Cells were homogenized in lysis buffer (12.5 mM Tris pH 6.8, 5 mM EDTA, 5 mM EGTA) and membranes were separated from the cytosol fraction by centrifugation. Membranes were suspended in binding buffer (75 mM Tris, 12.5 mM MgCl2, 2 mM EDTA) and an equal amount of membrane protein (1 μg) was plated in 96 well plates with QK (10^−13 to 10^−8 M) and [^125I]-VEGF (Amersham). VEGF binding was evaluated with a y-counter.
VEGF receptors binding assay. To verify the biological behavior of QK peptide, we tested its ability to compete for the binding sites of VEGF on cell membranes (FIG. 1a). We competed membranes, obtained from isolated BAEC, with iodinated VEGF and then with increasing amount of QK.

Question: What does the source list for “KVKFMDVYQRSYCHP (KVKFMDVYQRSYCHP-NH2) [VEGF15, natural peptide reproducing the VEGF helix 17-25, used as control peptide]”?
Answer: BEADS Ischemic to non ischemic ([1]; dyed beads dilution, muscle ratio, infusion 10^-7 M): 0.59 ± 0.15; ANGIOGRAPHY Number of TFC ([1]; ischemic hindlimb, chronic intrafemoral artery infusion 10^-7 M): 38 ± 2; ERK1/2 activation [2]: had no effect on ERK activation; binding to the VEGF receptor [3]: does not bind to the receptor
